The target of this test is T1, Sterol carrier protein 2 (SCP-2) (Homo sapiens, UniProt P22307).
T1 sequence (P22307 425-547): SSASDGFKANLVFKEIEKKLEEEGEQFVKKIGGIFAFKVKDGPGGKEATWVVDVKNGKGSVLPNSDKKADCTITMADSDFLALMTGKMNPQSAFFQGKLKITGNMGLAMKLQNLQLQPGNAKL
The test is classed as biochemical.

Molecules are shown by their SMILES.

For `CCCCC/C=C\C/C=C\C/C=C\C/C=C\CCCC(=O)NCCO` [AEA, N-arachidonylethanolamine], the “inhibition of recombinant SCP-2-mediated [14C]cholesterol transfer from SUVs to” value is on record as ~ 50 µM.

Source of the values: publication PMC4450258 (Molecular neurobiology, 2014).
